According to US20250040539A1, “COMPOSITION COMPRISING AN ANTIMICROBIAL AGENT AND A CARBOXAMIDE” (BASF SE, priority 2021, published 2025):

Key:
Type in all cases: cell-based
[1] = test system: fungal mix: Aspergillus brasiliensis DSM 1988, Rhodotorula mucilaginosa DSM 13621, Yarrowia lipolytica DSM 8218; assay: Preservative activity in a manual dishwashing composition (MDW, pH 7.1) with 1.0% 2-phenoxyethanol against fungal mix (Example 1.2); details: MDW + 1.0% PE + 0.6% amide
Method: (§1) A manual dish wash detergent (MDW) of pH 7.1 containing the following components was used:
The samples were contaminated with a fungal mix consisting of: • Aspergillus brasiliensis DSM 1988 • Rhodotorula mucilaginosa DSM 13621 • Yarrowia lipolytica DSM 8218
The samples were inoculated with the fungal mix at day 0 and 7 to obtain 1-3×10E+05 CFU/ml inoculation in the test sample consisting of the above-defined dish wash detergent MDW and stored at 25° C. for 21 days. CFU was determined before re-inoculation at day 7, and on days 14 and 21.
Any CFU value at d7, d14 or d21 obtained with a MDW sample of the invention containing 2-phenoxyethanol and amide (MDW+1.0% PE+x % of Amide) lower than the respective value of the comparative example (MDW+1.0% by weight of 2-phenoxyethanol) indicates a better performance of the inventive combination of 2-phenoxyethanol with the amide.

[2] = test system: fungal mix (including yeasts and molds): Aspergillus brasiliensis DSM 1988, Rhodotorula mucilaginosa DSM 13621, Yarrowia lipolytica DSM 8218; assay: Preservative activity of a basic composition (10% PG in water, pH 7) with 2-phenoxyethanol against fungal contamination (Example 1.1); details: 10% PG + 0.36% PE + 0.04% Amide in water, pH 7, 25° C.; for d7 [CFU/ml]: fungal mix inoculated at day 0, 7 and 14 (1-3x10E+05 CFU/ml), day 7 before re-inoculation; for d14 [CFU/ml] / d21 [CFU/ml]: fungal mix inoculated at day 0, 7 and 14; for d14 [CFU/ml]: day 14 before re-inoculation; for d21 [CFU/ml]: day 21
Method: An aqueous composition of pH 7 comprising 10% by weight of propyleneglycol (PG) as organic solvent, 0.36% by weight of 2-phenoxyethanol (PE) as antimicrobial and 0.04% by weight of the amide listed in the below table was tested for its preserving activity against fungal contamination (the percentages are weight percent and relate to the total weight of the composition). For this purpose, the samples were contaminated with a fungal mix (including yeasts and molds) consisting of: • Aspergillus brasiliensis DS M 1988 • Rhodotorula mucilaginosa DSM 13621 • Yarrowia lipolytica DS M 8218
To control the efficacy, following control compositions were tested: • “Reference”, consisting of only 10% by weight of propylene glycol in water • “Comparative 1” containing 10% by weight of propylene glycol and amide in the given concentration, but no 2-phenoxyethanol • […] in the given concentration, but no amide.
The samples were inoculated with the fungal mix at day 0, 7 and 14 to obtain a cell density in the range of 1-3×10E+05 CFU/ml (CFU=colony forming units) in the test samples (compositions listed in the below table) and stored at 25° C. for 21 days.
(§2) CFU was determined before re-inoculation at days 7 and 14, and on day 21.

[3] = test system: bacterial mix: Escherichia coli DSM 1576, Alcaligenes faecalis DSM 13644, Pseudomonas aeruginosa ATCC 15442, Staphylococcus aureus ATCC 6538, Burkholderia …; assay: Preservative activity in a manual dishwashing composition (MDW, pH 7.1) with 2.0% 2-phenoxyethanol against bacterial mix (Example 2.4); details: for d7 [CFU/ml]: day 7; for d14 [CFU/ml]: day 14; for d21 [CFU/ml]: day 21
Method: as §1
(§3) The samples were contaminated with a bacterial mix consisting of: • Escherichia coli DSM 1576 • Alcaligenes faecalis DSM 13644 • Pseudomonas aeruginosa ATCC 15442 • Staphylococcus aureus ATCC 6538 • Burkholderia cepacia DSM 7288 • Pseudomonas putida DSM 12735
The samples were inoculated with the bacterial mix at day 0 and 7 to obtain 10E+06 to 10E+07 CFU/ml inoculation in the test sample and stored at 25° C. for 21 days. CFU was determined before re-inoculation at day 7 and on days 14 and 21.
Any CFU value at day 7 (d7), day 14 (d14) or day 21 (d21) obtained with a sample according to the invention containing 2-phenoxyethanol and amide (MDW+2.0% PE+x % Amide) lower than the respective value of the “comparative 2” example (MOW+2.0% by weight of 2-phenoxyethanol) indicates a better performance.

[4] = test system: bacterial mix: Escherichia coli DSM 1576, Alcaligenes faecalis DSM 13644, Pseudomonas aeuginosa ATCC 15442, Staphylococcus aureus ATCC 6538, Burkholderia …; assay: Preservative activity of a basic composition (10% PG in water, pH 7) with 2-phenoxyethanol against bacterial contamination (Example 2.1); details: 10% PG + 0.36% PE + 0.04% amide; for d7 [CFU/ml]: day 7; for d14 [CFU/ml]: day 14; for d21 [CFU/ml]: day 21
Method: An aqueous composition of pH 7 comprising 10% by weight of propyleneglycol (PG) as organic solvent, 0.36% by weight of 2-phenoxyethanol (PE) as antimicrobial and 0.04% by weight of the amide listed in the below table was tested for its preserving activity against bacterial contamination (the weight percentages relate to the total weight of the composition). For this purpose, the samples were contaminated with a bacterial mix consisting of: • Escherichia coli DSM 1576 • Alcaligenes faecalis DSM 13644 • Pseudomonas aeuginosa ATCC 15442 • Staphylococcus aureus ATCC 6538 • Burkholderia cepacia DSM 7288 • Pseudomonas putida DSM 12735
The samples were inoculated with the bacterial mix at day 0, 7 and 14 to obtain 10E+06 to 10E+07 CFU/ml inoculation in the test samples (compositions listed in the below table) consisting of 10% by weight of propylene glycol in water and stored at 25° C. for 21 days.
as §2

[5] = test system: bacterial mix: Escherichia coli DSM 1576, Alcaligenes faecalis DSM 13644, Pseudomonas aeruginosa ATCC 15442, Staphylococcus aureus ATCC 6538, Burkholderia …; assay: Preservative activity in a manual dishwashing composition (MDW, pH 7.1) with 1.0% 2-phenoxyethanol against bacterial mix (Example 2.5); details: MDW + 1.0% PE + 1.0% amide
Method: A manual dish wash detergent (MOW) of pH 7.1 containing the following components was used:
as §3
The samples were inoculated with the bacterial mix at day 0 and 7 to obtain 10E+06 to 10E+07 CFU/ml inoculation in the test sample and stored at 25° C. for 21 days. CFU was determined before re-inoculation at day 7 and on day 21.
Any CFU value at day 7 (d7) or day 21 (d21) obtained with a sample according to the invention containing 2-phenoxyethanol and amide (MDW+1.0% PE+1.0% Amide) lower than the respective value of the comparative example (MDW+1% by weight of 2-phenoxyethanol) indicates a better performance.

[6] = MDW + 0.25% amide, no PE (Comparative 1c)
[7] = MDW + 5.0% amide, no PE (Comparative 1a)

CCCCC(CC)CNC(=O)/C=C\C(=O)O (centres unmarked) [Maleic acid N-2-ethylhexyl-amide]
d7 [CFU/ml] ([1]; day 7): 14,500 CFU/ml
d14 [CFU/ml] ([1]; day 14): 2,900 CFU/ml
d21 [CFU/ml] ([1]; day 21): 225 CFU/ml
d7 [CFU/ml] [2]: 875 CFU/ml
d14 [CFU/ml] [2]: 8,500 CFU/ml
d21 [CFU/ml] [2]: 18,500 CFU/ml
d7 [CFU/ml] [3, 6]: >100,000 CFU/ml
d14 [CFU/ml] [3, 6]: >100,000 CFU/ml
d21 [CFU/ml] [3, 6]: >100,000 CFU/ml
d7 [CFU/ml] ([3]; MDW + 1.0% amide, no PE): >100,000 CFU/ml
d14 [CFU/ml] ([3]; MDW + 1.0% amide, no PE): >100,000 CFU/ml
d21 [CFU/ml] ([3]; MDW + 1.0% amide, no PE): >100,000 CFU/ml
d7 [CFU/ml] ([3]; MDW + 2.0% PE + 0.25% amide): <10 CFU/ml
d14 [CFU/ml] ([3]; MDW + 2.0% PE + 0.25% amide): <10 CFU/ml
d21 [CFU/ml] ([3]; MDW + 2.0% PE + 0.25% amide): <10 CFU/ml
d7 [CFU/ml] ([3]; MDW + 2.0% PE + 1.0% amide): <10 CFU/ml
d14 [CFU/ml] ([3]; MDW + 2.0% PE + 1.0% amide): <10 CFU/ml
d21 [CFU/ml] ([3]; MDW + 2.0% PE + 1.0% amide): <10 CFU/ml
d7 [CFU/ml] ([3]; MDW + 2.0% PE + 5.0% amide): <10 CFU/ml
d14 [CFU/ml] ([3]; MDW + 2.0% PE + 5.0% amide): <10 CFU/ml
d21 [CFU/ml] ([3]; MDW + 2.0% PE + 5.0% amide): <10 CFU/ml
d7 [CFU/ml] [3, 7]: >100,000 CFU/ml
d14 [CFU/ml] [3, 7]: >100,000 CFU/ml
d21 [CFU/ml] [3, 7]: >100,000 CFU/ml
d7 [CFU/ml] [4]: 545 CFU/ml
d14 [CFU/ml] [4]: 22,000 CFU/ml
d21 [CFU/ml] [4]: 20,500 CFU/ml

CCCCCC(CCC)C(=O)N(C)C (centres unmarked) [2-Propylheptanoyl-N,N-dimethylamide]
d7 [CFU/ml] [2]: 5,200 CFU/ml
d14 [CFU/ml] [2]: 3,250 CFU/ml
d21 [CFU/ml] [2]: 8,000 CFU/ml

C=CCCCCCCCC(=O)N(C)C [N,N-dimethyl 9-decenoylamide]
d7 [CFU/ml] ([5]; day 7): <10 CFU/ml
d21 [CFU/ml] ([5]; day 21): <10 CFU/ml

CCCCCCN(CCCCCC)C(C)=O [Ethanoyl-N,N-dihexylamide]
d7 [CFU/ml] [2]: 3,100 CFU/ml
d14 [CFU/ml] [2]: 2,750 CFU/ml
d21 [CFU/ml] [2]: 2,450 CFU/ml
d7 [CFU/ml] [4]: 75 CFU/ml
d14 [CFU/ml] [4]: 200 CFU/ml
d21 [CFU/ml] [4]: 1,450 CFU/ml

CCCCCCCC(=O)N(C)C [n-Octanoyl-N,N-dimethylamide]
d7 [CFU/ml] [4]: 25 CFU/ml
d14 [CFU/ml] [4]: 2,100 CFU/ml
d21 [CFU/ml] [4]: 5,550 CFU/ml
